From patent US20210380595A1 (ARAXES PHARMA LLC, priority 2018, published 2021) come the findings set out here.

The first test has as its target T1, KRAS G12C 1-169, his-tagged protein, GDP-loaded (Homo sapiens, UniProt P01116, G12C).
T1 construct: KRAS G12C 1-169, his-tagged protein, GDP-loaded
The test can be described thus: Biochemical assay: covalent modification of KRAS G12C measured by mass spectrometry (RapidFire/TOF or Q-Exactive). The following applies: tested at 32 μM. It is filed as binding. The method, then: Test compounds were prepared as 10 mM stock solutions in DMSO (Fisher cat. #BP-231-100). KRAS G12C 1-169, his-tagged protein, GDP-loaded is diluted to 2 μM or 0.5 μM in buffer (20 mM Hepes, 150 mM NaCl, 1 mM MgCl2). Compounds were tested for activity as follows:
Compounds were diluted to 50× final test concentration in DMSO in 96-well storage plates. Compound stock solutions were vortexed before use and observed cwerefully for any sign of precipitation. Dilutions were as follow: • For 32 μM final compound concentration, compounds were diluted to 1600 μM (3 μL 10 mM compound stock +15.75 μL DMSO and mixed well by pipetting. • For 8 μM final compound concentration, compounds were diluted to 400 μM (2 μL 10 mM compound stock +48 μL DMSO) and mixed well by pipetting. 49 μL of the stock protein solution was added to each well of a 96-well PCR plate (Fisher cat#1423027). 1 μl of the diluted 50× compounds were added to appropriate wells in the PCR plate using 12-channel pipettor. Reactions were mixed carefully and thoroughly by pipetting up/down with a 200 μL multi-channel pipettor. The plate was sealed well with aluminum plate seal, and protein and compound were allowed to react for a desired amount of time. 5 μL of 2% formic acid (Fisher cat#A117) in de-ionized H2O was then added to each well followed by mixing with a pipette to quench the reaction. The plate was then resealed with aluminum seal and stored frozen on dry ice until analyzed as described below.
The above described assays were analyzed by mass spectrometry according to one of the following two procedures:
The MS instrument was set to positive polarity, 2 GHz resolution, and low mass (1700) mode and allowed to equilibrate for 30 minutes. The instrument was then calibrated, switched to acquisition mode and the appropriate method loaded.
After another 30 minute equilibration time, a blank batch (i.e., buffer) was run to ensure equipment is operating properly. The samples were thawed at 37° C. for 10 minutes, briefly centrifuged, and transfered to the bench top. Wells A1 and H12 were spiked with 1 μL 500 μM internal standard peptide, and the plates centrifuged at 2000×g for 5 minutes. The method was then run and masses of each individual well recorded.
The masses (for which integration data is desired) for each well were pasted into the platemap and exported from the analysis. Masses for the internal standards were exported as well. The data at 50 ppm was extracted for the +19 charge state, and identity of well A1 was assigned using the internal standard spike and integrated. Peak data was exported as a TOF list and the above steps were repeated individually, for the +20, +21, +22, +23, +24, and +25 charge states.
The masses and peak intensities of KRAS G12C protein species were measured using a Dionex RSLCnano system (Thermo Scientific) connected to a Q Exactive Plus mass spectrometer (Thermo Scientific).
20 μL of sample was loaded onto a Aeris™ 3.6 μm WIDEPORE C4 200 Å, LC Column 50×2.1 mm column maintained at 40° C. at a flow rate of 600 μL/min with 80% Solvent A (0.1% formic acid in H2O) and 20% Solvent B (0.1% formic acid in acetonitrile). The liquid chromatography conditions were 20% solvent B for 1 minute, 20% to 60% solvent B for 1.5 minutes, 60% to 90% solvent for 0.5 minute, 90% solvent B for 0.2 minute, 90% to 20% solvent B for 0.2 minute, and then equilibrated for 1.6 minute before the following sample injection. The flow rate was maintained at 600 μL/min throughout the sample analysis.
The mass spectrometer was operated in profile mode at a resolution of 17500, 5 microscans, using 50 msec max injection time and an AGC target of 1×10^6, and a full mass range from 800-1850 m/z was recorded. The intact protein mode was applied for optimal ion transfer and maximum sensitivity. The ionization method was electrospray ionization, which used a spray voltage of 4 kV, sheath gas flow set to 50 AU, auxiliary gas flow set to 10 AU and sweep gas flow set to 1 AU. […]
As to `C=CC(=O)N1CC2(CCN(c3cc(N4CCC5(CCN(C)C5)C4)cc(-c4c(C)ccc5[nH]ncc45)c3C#N)C2)C1` (stereo not drawn) [Compound I-41, 2-(2-acryloyl-2,6-diazaspiro[3.4]octan-6-yl)-6-(5-methyl-1H-indazol-4-yl)-4-(7-methyl-2,7-diazaspiro[4.4]nonan-2-yl)benzonitrile], the Bind % entry was “+++ (+++ indicates binding activity greater than 75%)”.

Take `Cc1ccc2[nH]ncc2c1-c1c(F)ccc(N2CCC3(CN(C(=O)/C=C/CN(C)C)C3)C2)c1C#N` [Compound I-46, (E)-6-(2-(4-(dimethylamino)but-2-enoyl)-2,6-diazaspiro[3.4]octan-6-yl)-3-fluoro-2-(5-methyl-1H-indazol-4-yl)benzonitrile]: the Bind % entry is “+ (+ indicates binding activity greater than 0% and up to 50%)”.

`Cc1ccc2cnn(C)c2c1-c1c(F)ccc(N2CCC3(CN(C(=O)/C=C/CN(C)C)C3)C2)c1C#N` [Compound I-47, (E)-2-(1,6-dimethyl-1H-indazol-7-yl)-6-(2-(4-(dimethylamino)but-2-enoyl)-2,6-diazaspiro[3.4]octan-6-yl)-3-fluorobenzo-nitrile]: the Bind % entry was “+ (+ indicates binding activity greater than 0% and up to 50%)”.

Consider `C=CC(=O)N1CCC2(C1)CN(c1cc(OCc3ccccn3)cc(-c3c(C)ccc4[nH]ncc34)c1C#N)C2` [Compound I-48, 2-(6-acryloyl-2,6-diazaspiro[3.4]octan-2-yl)-6-(5-methyl-1H-indazol-4-yl)-4-(pyridin-2-ylmethoxy) benzonitrile], for which the Bind % entry was “+ (+ indicates binding activity greater than 0% and up to 50%)”.

Regarding `CC#CC(=O)N1CCC2(C1)CN(c1cc(OCc3ccccn3)cc(-c3c(C)ccc4[nH]ncc34)c1C#N)C2` [Compound I-49, 2-(6-(but-2-ynoyl)-2,6-diazaspiro[3.4]octan-2-yl)-6-(5-methyl-1H-indazol-4-yl)-4-(pyridin-2-ylmethoxy) benzonitrile], the Bind % result was “+ (+ indicates binding activity greater than 0% and up to 50%)”.

As for `CC#CC(=O)N1CC2(CCN(c3cc(OCc4ccccn4)cc(-c4c(C)ccc5[nH]ncc45)c3C#N)CC2)C1` [Compound I-51, 2-(2-(but-2-ynoyl)-2,7-diazaspiro[3.5]nonan-7-yl)-6-(5-methyl-1H-indazol-4-yl)-4-(pyridin-2-ylmethoxy) benzonitrile], the Bind % entry is “+ (+ indicates binding activity greater than 0% and up to 50%)”.

`C=CC(=O)N1CCC2(CCN(c3cc(OCc4ccccn4)cc(-c4c(C)ccc5[nH]ncc45)c3C#N)CC2)C1` [Compound I-52, 2-(2-acryloyl-2,8-diazaspiro[4.5]decan-8-yl)-6-(5-methyl-1H-indazol-4-yl)-4-(pyridin-2-ylmethoxy) benzonitrile]: the Bind % result is “+ (+ indicates binding activity greater than 0% and up to 50%)”.

As to `CC#CC(=O)N1CCC2(CCN(c3cc(OCc4ccccn4)cc(-c4c(C)ccc5[nH]ncc45)c3C#N)CC2)C1` [Compound I-53, 2-(2-(but-2-ynoyl)-2,8-diazaspiro[4.5]decan-8-yl)-6-(5-methyl-1H-indazol-4-yl)-4-(pyridin-2-ylmethoxy) benzonitrile], the Bind % entry was “+ (+ indicates binding activity greater than 0% and up to 50%)”.

Turning to `Cc1ccc2cnn(C)c2c1-c1cc(OCc2ccccn2)cc(N2CCC3(CN(C(=O)/C=C/CN(C)C)C3)C2)c1C#N` [Compound I-54, (E)-2-(1,6-dimethyl-1H-indazol-7-yl)-6-(2-(4-(dimethylamino)but-2-enoyl)-2,6-diazaspiro[3.4]octan-6-yl)-4-(pyridin-2-ylmethoxy) benzonitrile], the Bind % entry is given as “+++ (+++ indicates binding activity greater than 75%)”.

Turning to `CC#CC(=O)N1CCC2(CCN(c3cc(OCc4ccccn4)cc(-c4c(C)ccc5[nH]ncc45)c3C#N)C2)C1` (stereo not drawn) [Compound I-56, 2-(7-(but-2-ynoyl)-2,7-diazaspiro[4.4]nonan-2-yl)-6-(5-methyl-1H-indazol-4-yl)-4-(pyridin-2-ylmethoxy) benzonitrile], the Bind % entry was “+ (+ indicates binding activity greater than 0% and up to 50%)”.

`C=CC(=O)N1CC2(CCN(c3ccc(OCCCN(C)C)c(-c4c(C)ccc5[nH]ncc45)c3C#N)C2)C1` [Compound I-57, 6-(2-acryloyl-2,6-diazaspiro[3.4]octan-6-yl)-3-(3-(dimethylamino)propoxy)-2-(5-methyl-1H-indazol-4-yl)benzonitrile]: the Bind % entry was “+ (+ indicates binding activity greater than 0% and up to 50%)”.

With `C=CC(=O)N1CCC2(CC1)CCN(c1cc(OCc3ccccn3)cc(-c3c(C)ccc4[nH]ncc34)c1C#N)C2` [Compound I-58, 2-(8-acryloyl-2,8-diazaspiro[4.5]decan-2-yl)-6-(5-methyl-1H-indazol-4-yl)-4-(pyridin-2-ylmethoxy) benzonitrile], the Bind % result was “+ (+ indicates binding activity greater than 0% and up to 50%)”.

Take `CC#CC(=O)N1CCC2(CC1)CCN(c1cc(OCc3ccccn3)cc(-c3c(C)ccc4[nH]ncc34)c1C#N)C2` [Compound I-59, 2-(8-(but-2-ynoyl)-2,8-diazaspiro[4.5]decan-2-yl)-6-(5-methyl-1H-indazol-4-yl)-4-(pyridin-2-ylmethoxy) benzonitrile]: the Bind % entry was “+ (+ indicates binding activity greater than 0% and up to 50%)”.

The same test, now with this note: tested at a concentration of 8 μM.
On to `C=CC(=O)N1CC2(CCN(c3ccc(OC)c(-c4c(C)ccc5[nH]ncc45)c3C#N)C2)C1` [Compound I-37, 6-(2-acryloyl-2,6-diazaspiro[3.4]octan-6-yl)-3-methoxy-2-(5-methyl-1H-indazol-4-yl)benzonitrile], for which the Bind % entry was “+ (+ indicates binding activity greater than 0% and up to 50%)”.

With `C=CC(=O)N1CC2(CCN(c3cc(N4CCC(N5CCN(C)[C@H](C)C5)CC4)cc(-c4c(C)ccc5[nH]ncc45)c3C#N)C2)C1` [Compound I-38, 2-(2-acryloyl-2,6-diazaspiro[3.4]octan-6-yl)-4-(4-((R)-3,4-dimethyl-piperazin-1-yl)piperidin-1-yl)-6-(5-methyl-1H-indazol-4-yl)benzonitrile], the Bind % entry is listed as “+++ (+++ indicates binding activity greater than 75%)”.

In the case of `C=CC(=O)N1CC2(CCN(c3cc(N4CCC(N5CCN(C)CC5)CC4)cc(-c4c(C)ccc5[nH]ncc45)c3C#N)C2)C1` [Compound I-39, 2-(2-acryloyl-2,6-diazaspiro[3.4]octan-6-yl)-6-(5-methyl-1H-indazol-4-yl)-4-(4-(4-methylpiperazin-1-yl)piperidin-1-yl)benzonitrile], the Bind % entry was “+++ (+++ indicates binding activity greater than 75%)”.

For the compound `C=CC(=O)N1CC2(CCN(c3cc(OC[C@@H]4CCCN4C)cc(-c4c(C)ccc5cnn(C)c45)c3C#N)C2)C1` [Compound I-40, 2-(2-acryloyl-2,6-diazaspiro[3.4]octan-6-yl)-6-(1,6-dimethyl-1H-indazol-7-yl)-4-(((S)-1-methylpyrrolidin-2-yl)methoxy) benzonitrile], the Bind % result was “+++ (+++ indicates binding activity greater than 75%)”.

Take `C=CC(=O)N1CC2(CCN(c3cc(OCc4ccccn4)cc(-c4c(C)ccc5[nH]ncc45)c3C#N)CC2)C1` [Compound I-50, 2-(2-acryloyl-2,7-diazaspiro[3.5]nonan-7-yl)-6-(5-methyl-1H-indazol-4-yl)-4-(pyridin-2-ylmethoxy) benzonitrile]: the Bind % result was “+ (+ indicates binding activity greater than 0% and up to 50%)”.
